pIC50: −log10 of the molar value. Like-named read-outs stand apart in the source and are kept apart here.
Experiments:
Mouse CTLL2 cells = test: CTLL2 proliferation assay (BrdU ELISA); assay type: cell-based
Protocol: Mouse CTLL2 cells were cultured at 1×10^5 cells/well in 0.2 ng/ml IL2. To each well as indicated 1 nM TGF-β, 1 μg/ml ADC, and/or 100 nM ALK5 inhibitor Compound C was added to the wells for 24 hours. Proliferation was quantitated via addition of the BrdU reagent (Abcam) to each well for another 12 hours and then analyzed by ELISA.

[1] = test system: TGF-β-induced luciferase activity in HEK293T cells; test: TGF-β-induced SMAD luciferase reporter assay in HEK293T cells; assay type: cell-based; conditions: Homo sapiens, HEK-293T, 24 hours
Protocol: Compounds A-D were tested to determine whether they could inhibit TGF-β-induced luciferase activity in HEK293T cells in vitro.
30,000 HEK293T cells were seeded in a 96 well white flat bottom plate overnight. The next day 100 ng of a SMAD luciferase reporter plasmid per well was transfected into the cells using lipofectamine for 24 hours. The next day cells were treated with Compounds A-D and […] TGFβ for 24 hours. Luciferase activity was measured using the Dual-Glo® luciferase assay kit (Promega). The assay was run twice for Compounds A, B, and D, and three times for Compound C.

[2] = test system: primary mouse CD4^+ T cells; test: MTS proliferation assay; assay type: cell-based; conditions: for pIC50: Mus musculus, CD4+ T; for reversal of TGFβ-mediated inhibition of T cell proliferation (in words): mouse CD4^+ T cells, 1 nM TGF-β1
Protocol: Compounds A-D were tested to determine whether they could inhibit TGF-β signaling in primary mouse CD4^+ T cells.
Primary mouse CD4^+ T cells were isolated from the spleens of C57/B6 mice using the RoboSep™ cell isolation system (Stemcell Technologies). 0.5 μg/ml of hamster anti-mouse CD3e antibody (145-2C11; eBioscience) was coated onto a 96 well flat bottom plate overnight. 1×10^5 purified CD4^+ T cells were incubated with 1 μg/ml soluble hamster anti-mouse CD28 antibody (37.51, BD Biosciences), 1 nM TGF-β1 and 8-fold serial dilutions of Compounds A-D. After 72 hours, cell proliferation was measured using an MTS assay (Promega) in accordance with the manufacturer's instructions.

[3] = test system: GzmB expression in primary CD8^+ T cells; test: Granzyme B expression assay; assay type: cell-based, mouse; conditions: 1 nM TGF-β, ADC1 at DARs 2-4, 4-6 and 6-8, flow cytometry
Protocol: Mouse CD3^+ T cells were purified from mouse spleens using the EasySep™ Mouse T cell isolation kit (negative selection) (Stemcell Technologies). CD3^+ T cells were activated as before using plate bound antiCD3e and soluble anti-CD28 for 48 hours. T cells were washed and re-plated in media with 5% serum plus 1 nM TGF-β−/+ADC.
Golgi stop reagent was added for the last 4 hours and then the cells were immunostained for surface CD8 (BD) and intracellular GzmB (eBioscience) and analyzed via flow cytometry. Granzyme B (GzmB) is a serine protease released by CD8^+ T cells to kill tumor cells. Thus, increased expression of GzmB is indicative of CD8^+ cytotoxic T cell activation.

[4] = test system: Naïve CD4 T cells (iTreg FoxP3 expression); test: iTreg conversion assay; assay type: cell-based, mouse
Protocol: Naïve CD4 T cells were isolated from isolated mouse spleenocytes using a negative selection kit. The cell density was adjusted to 0.4×10^6 cells/ml, and 10 ng/ml of mouse IL-2, 20 ng/ml of TGF-β, and 1 μg/ml of soluble anti-CD28 was added to the cell suspension.
Anti-mouse CD3 antibody at 10 μg/ml was coated on a 24 well plate and incubated at 4° C. overnight. The antibody was then aspirated from the plate. 1 ml of the cell suspension was added to each well of the 24 well plate. ADC1 (DAR 4-6) at 3 μg/ml and 5 μg/ml, anti-transferrin receptor antibody, rat anti-mouse IgG2A isotype control ALK5 ADC, and ALK5 inhibitor Compound C at 100 nM and 1 μM were added to separate wells of the 24 well plate. The cells were then cultured for 72 hours. TfR expression was tested at 48 hours (data not shown). Cells were stained for FoxP3 (eBioscience FoxP3 staining buffer) and sorted by FACS at 72 hours.

[5] = Experiment 1, 100 μM TGFβ, read-out: Experiment 1 IC50
[6] = Experiment 2, 100 μM TGFβ, read-out: Experiment 2 IC50
[7] = Experiment 1, anti-CD3e/anti-CD28, 1 nM TGF-β1, 72 hours
[8] = Experiment 2, anti-CD3e/anti-CD28, 1 nM TGF-β1, 72 hours, read-out: Experiment 2 IC50
[9] = Experiment 1, anti-CD3e/anti-CD28, 1 nM TGF-β1, 72 hours, read-out: Experiment 1 IC50

Q: TGF-β was tested. Which “inhibition of CTLL2 proliferation” value (Mouse CTLL2 cells; 1 nM TGF-β alone) did it give?
A: approximately 60%

Q: How did the pIC50 [1, 5] turn out when `Cc1cccc(-c2nc(N)sc2-c2ccc3ncccc3n2)n1` [Compound A, 4-(6-methylpyridin-2-yl)-5-(1,5-naphthyridin-2-yl)thiazol-2-amine] was run?
A: 7.73

Q: And the pIC50 [1, 6]?
A: 7.53

Q: What about the “Experiment 1 IC50” value [2, 7] of the same compound?
A: Value not obtained

Q: And the pIC50 [2, 8]?
A: 6.82

Q: And the “reversal of TGFβ-mediated inhibition of T cell proliferation (in words)” value [2]?
A: did not show consistent effects

Q: `CNCCOc1ccc(-c2cc(-c3c[nH]nc3-c3ccccn3)ccn2)cc1` [Compound B, N-methyl-2-(4-(4-(3-(pyridin-2-yl)-1H-pyrazol-4-yl)pyridin-2-yl)phenoxy)ethan-1-amine] was tested. Which pIC50 [1, 5] did it give?
A: 7.29

Q: And the pIC50 [1, 6]?
A: 7.95

Q: And the pIC50 [2, 9]?
A: 7.22

Q: And the pIC50 [2, 8]?
A: 7.47

Q: What about the “reversal of TGFβ-mediated inhibition of T cell proliferation (in words)” value [2] of the same compound?
A: reversed TGFβ-mediated inhibition of T cell proliferation

Q: `CCNC(=O)c1ccc2c(c1)NC(=O)/C2=C(\Nc1ccc(N(CCNC)S(C)(=O)=O)cc1)c1ccccc1` [Compound D, (Z)-N-ethyl-3-(((4-(N-(2-(methylamino)ethyl)methylsulfonamido)phenyl)amino)(phenyl)methylene)-2-oxoindoline-6-carboxamide] was tested. Which pIC50 [1, 5] did it give?
A: 5.97

Q: And the pIC50 [1, 6]?
A: 5.82

Q: And the “Experiment 1 IC50” value [2, 7]?
A: Value not obtained

Q: What about the “Experiment 2 IC50” value ([2]; Experiment 2, anti-CD3e/anti-CD28, 1 nM TGF-β1, 72 hours) of the same compound?
A: Value not obtained

Q: What about the “reversal of TGFβ-mediated inhibition of T cell proliferation (in words)” value [2] of the same compound?
A: an IC50 value was not obtained

Q: `CNCCOc1ccc(-c2cc(-c3c[nH]nc3-c3cccc(C)n3)ccn2)cc1` [Compound C, N-methyl-2-(4-(4-(3-(6-methylpyridin-2-yl)-1H-pyrazol-4-yl)pyridin-2-yl)phenoxy)ethan-1-amine] was tested. Which pIC50 [1, 5] did it give?
A: 8.00

Q: And the pIC50 [1, 6]?
A: 7.67

Q: And the pIC50 ([1]; Experiment 3, 100 μM TGFβ, read-out: Experiment 3 IC50)?
A: 7.88

Q: And the pIC50 [2, 9]?
A: 7.70

Q: What about the pIC50 [2, 8] of the same compound?
A: 7.48

Q: What about the “reversal of TGFβ-mediated inhibition of T cell proliferation (in words)” value [2] of the same compound?
A: reversed TGFβ-mediated inhibition of T cell proliferation

Q: And the “restoration of GzmB expression” value ([3]; listed as ALK5 compound)?
A: restore GzmB expression

Q: And the “restoration of GzmB expression” value ([3]; listed as free ALK5 inhibitor)?
A: partially restores Granzyme B expression

Q: What about the “restoration of CTLL2 proliferation in presence of TGF-β” value (Mouse CTLL2 cells; 100 nM ALK5 inhibitor Compound C, 1 nM TGF-β, 24 hours) of the same compound?
A: almost complete reversal of TGF-β inhibition and restoration of CTLL2 proliferation

Q: And the “amount of iTreg generated” value ([4]; 100 nM free ALK5 inhibitor, 20 ng/ml TGF-β, 72 hours)?
A: modestly decreased the amount of iTreg generated

Q: What about the iTreg generation ([4]; 100 nM of free ALK5 inhibitor (FIG. 12 legend)) of the same compound?
A: decreases iTreg generation

Source: US12473377B2, “Antibody-ALK5 inhibitor conjugates and their uses” (Synthis Therapeutics, Inc., priority 2016, dated 2025)
